Drawing on patent US10428063B2 (Bayer Pharma Aktiengesellschaft, priority 2015, dated 2019), this text covers IC50 for 18 molecules.

The structures appear in SMILES notation.

Sequence of catalytic domain of human Bub1 (amino acids 704-1085) (O43683 704-1085): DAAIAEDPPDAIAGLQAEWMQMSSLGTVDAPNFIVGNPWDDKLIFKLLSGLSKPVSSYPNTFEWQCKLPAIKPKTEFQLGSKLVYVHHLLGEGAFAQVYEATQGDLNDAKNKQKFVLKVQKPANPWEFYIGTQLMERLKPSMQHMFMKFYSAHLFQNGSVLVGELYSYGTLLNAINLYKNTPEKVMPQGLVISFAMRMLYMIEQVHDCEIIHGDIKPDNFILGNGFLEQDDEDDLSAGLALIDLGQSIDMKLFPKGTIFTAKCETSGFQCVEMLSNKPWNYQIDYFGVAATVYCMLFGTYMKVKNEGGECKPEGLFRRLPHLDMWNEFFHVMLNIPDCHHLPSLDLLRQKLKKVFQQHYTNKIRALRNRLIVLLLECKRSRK

The assay concerns the target catalytic domain of human Bub1 (amino acids 704-1085) (Homo sapiens (Human), UniProt O43683). Put plainly: Bub1 kinase assay (TR-FRET). The class given is biochemical. The note with it: 10 μM ATP, 1 μM peptide substrate, recombinant catalytic domain of human Bub1, read-out: Bub1 kinase assay median IC50. An excerpt: Bub1-inhibitory activities of compounds described in the present invention were quantified using a time-resolved fluorescence energy transfer (TR-FRET) kinase assay which measures phosphorylation of the synthetic peptide Biotin-Ahx-VLLPKKSFAEPG (C-terminus in amide form), purchased from e.g. Biosyntan (Berlin, Germany) by the (recombinant) catalytic domain of human Bub1 (amino acids 704-1085), expressed in Hi5 insect cells with an N-terminal His6-tag and purified by affinity- (Ni-NTA) and size exclusion chromatography.
In a typical assay 11 different concentrations of each compound (0.1 nM, 0.33 nM, 1.1 nM, 3.8 nM, 13 nM, 44 nM, 0.15 μM, 0.51 μM, 1.7 μM, 5.9 μM and 20 μM) were tested in duplicate within the same microtiter plate. To this end, 100-fold concentrated compound solutions (in DMSO) were previously prepared by serial dilution (1:3.4) of 2 mM stocks in a clear low volume 384-well source microtiter plate (Greiner Bio-One, Frickenhausen, Germany), from which 50 nl of compounds were transferred into a black low volume test microtiter plate from the same supplier. Subsequently, 2 μl of Bub1 (the final concentration of Bub1 was adjusted depending on the activity of the enzyme lot in order to be within the linear dynamic range of the assay: typically ˜200 ng/ml were used) in aqueous assay buffer [50 mM Tris/HCl pH 7.5, 10 mM magnesium chloride (MgCl2), 200 mM potassium chloride (KCl), 1.0 mM dithiothreitol (DTT), 0.1 mM sodium ortho-vanadate, 1% (v/v) glycerol, 0.01% (w/v) bovine serum albumine (BSA), 0.005% (v/v) Trition X-100 (Sigma), 1× Complete EDTA-free protease inhibitor mixture (Roche)] were added to the compounds in the test plate and the mixture was incubated for 15 min at 22° C. to allow pre-equilibration of the putative enzyme-inhibitor complexes before the start of the kinase reaction, which was initiated by the addition of 3 μl 1.67-fold concentrated solution (in assay buffer) of adenosine-tri-phosphate (ATP, 10 μM final concentration) and peptide substrate (1 μM final concentration). The resulting mixture (5 μl final volume) was incubated at 22° C. during 60 min., and the reaction was stopped by the addition of 5 μl of an aqueous EDTA-solution (50 mM EDTA, in 100 mM HEPES pH 7.5 and 0.2% (w/v) bovine serum albumin) which also contained the TR-FRET detection reagents (0.2 μM streptavidin-XL665 [Cisbio Bioassays, Codolet, France] and 1 nM anti-phosho-Serine antibody [Merck Millipore, cat. #35-002] and 0.4 nM LANCE EU-W1024 labeled anti-mouse IgG antibody [Perkin-Elmer, product no. AD0077, alternatively a Terbium-cryptate-labeled anti-mouse IgG antibody from Cisbio Bioassays can be used]). The stopped reaction mixture was further incubated 1 h at 22° C. in order to allow the formation of complexes between peptides and detection reagents. Subsequently, the amount of product was evaluated by measurement of the resonance energy transfer from the Eu-chelate-antibody complex recognizing the Phosphoserine residue to the streptavidin-XL665 bound to the biotin moiety of the peptide. To this end, the fluorescence emissions at 620 nm and 665 nm after excitation at 330-350 nm were measured in a TR-FRET plate reader, e.g. a Rubystar or Pherastar (both from BMG Labtechnologies, Offenburg, Germany) or a Viewlux (Perkin-Elmer) and the ratio of the emissions (665 nm/622 nm) was taken as indicator for the amount of phosphorylated substrate. The data were normalised using two sets of control wells for high- (=enzyme reaction without inhibitor=0%=Minimum inhibition) and low- (=all assay components without enzyme=100%=Maximum inhibition) Bub1 activity. IC50 values were calculated by fitting the normalized inhibition data to a 4-parameter logistic equation (Minimum, Maximum, IC50, Hill; Y=Max+(Min−Max)/(1+(X/IC50)Hill)).
For the molecule `CN1CCc2[nH]c(-c3ccncc3OCC(F)F)c(Nc3ccccc3)c2C1=O` [Example 29, 2-[3-(2,2-difluoroethoxy)pyridin-4-yl]-5-methyl-3-(phenylamino)-1,5,6,7-tetrahydro-4H-pyrrolo[3,2-c]pyridin-4-one], the concentration for half-maximal inhibition (IC50) is 70.8 nM.

With `CN1CCc2[nH]c(-c3ccncc3OCC(F)(F)F)c(Nc3ccccc3)c2C1=O` [Example 30, 5-methyl-3-(phenylamino)-2-[3-(2,2,2-trifluoroethoxy)pyridin-4-yl]-1,5,6,7-tetrahydro-4H-pyrrolo[3,2-c]pyridin-4-one], the half-inhibitory concentration (IC50) was 84.3 nM.

For the molecule `COCCOc1cnccc1-c1[nH]c2c(c1Nc1ccccc1)C(=O)N(C)CC2` [Example 31, 2-[3-(2-methoxyethoxy)pyridin-4-yl]-5-methyl-3-(phenylamino)-1,5,6,7-tetrahydro-4H-pyrrolo[3,2-c]pyridin-4-one], the IC50 came to 9.93 nM.

For the molecule `CN1CCc2[nH]c(-c3ccncc3OCc3ccccc3)c(Nc3ccccc3)c2C1=O` [Example 32, 2-[3-(benzyloxy)pyridin-4-yl]-5-methyl-3-(phenylamino)-1,5,6,7-tetrahydro-4H-pyrrolo[3,2-c]pyridin-4-one], the IC50 turned out to be 41.6 nM.

For `CN1CCc2[nH]c(-c3ccncc3OCCC(F)(F)F)c(Nc3ccccc3)c2C1=O` [Example 33, 5-methyl-3-(phenylamino)-2-[3-(3,3,3-trifluoropropoxy)pyridin-4-yl]-1,5,6,7-tetrahydro-4H-pyrrolo[3,2-c]pyridin-4-one], the IC50 stood at 51.8 nM.

On to `CN1CCc2[nH]c(-c3ccncc3OC[C@H]3CCOC3)c(Nc3ccccc3)c2C1=O` [Example 34, 5-methyl-3-(phenylamino)-2-{3-[(3S)-tetrahydrofuran-3-ylmethoxy]pyridin-4-yl}-1,5,6,7-tetrahydro-4H-pyrrolo[3,2-c]pyridin-4-one], for which the IC50 worked out at 22.5 nM.

In the case of `CN1CCc2[nH]c(-c3ccncc3OCCC(C)(C)C)c(Nc3ccccc3)c2C1=O` [Example 35, 2-[3-(3,3-dimethylbutoxy)pyridin-4-yl]-5-methyl-3-(phenylamino)-1,5,6,7-tetrahydro-4H-pyrrolo[3,2-c]pyridin-4-one], the concentration for half-maximal inhibition (IC50) turned out to be 85.9 nM.

With `CN1CCc2[nH]c(-c3ccnc4[nH]cnc34)c(Nc3ccccc3)c2C1=O` [Example 36, 2-(3H-imidazo[4,5-b]pyridin-7-yl)-5-methyl-3-(phenylamino)-1,5,6,7-tetrahydro-4H-pyrrolo[3,2-c]pyridin-4-one], the half-maximal inhibitory concentration (IC50) is 34.8 nM.

With `O=C1NCCc2[nH]c(-c3ccncc3OCC3CC3)c(Nc3ccc(F)c(F)c3)c21` [Example 37, 2-[3-(cyclopropylmethoxy)pyridin-4-yl]-3-[(3,4-difluorophenyl)amino]-1,5,6,7-tetrahydro-4H-pyrrolo[3,2-c]pyridin-4-one], the half-inhibitory concentration (IC50) was determined as 59.8 nM.

`O=C1NCCc2[nH]c(-c3ccncc3OCC3CC3)c(Nc3ccc(F)cc3)c21` [Example 38, 2-[3-(cyclopropylmethoxy)pyridin-4-yl]-3-[(4-fluorophenyl)amino]-1,5,6,7-tetrahydro-4H-pyrrolo[3,2-c]pyridin-4-one]: the 50% inhibitory concentration (IC50) came out at 56.1 nM.

In the case of `O=C1NCCc2[nH]c(-c3ccncc3OCC3CC3)c(Nc3cccc(F)c3)c21` [Example 39, 2-[3-(cyclopropylmethoxy)pyridin-4-yl]-3-[(3-fluorophenyl)amino]-1,5,6,7-tetrahydro-4H-pyrrolo[3,2-c]pyridin-4-one], the IC50 is 24.1 nM.

`CN1CCc2[nH]c(-c3ccnc(NC(=O)[C@@H]4C[C@@H]4F)c3)c(Nc3ccccc3)c2C1=O` [Example 40, (1S,2S)-2-fluoro-N-{4-[5-methyl-4-oxo-3-(phenylamino)-4,5,6,7-tetrahydro-1H-pyrrolo[3,2-c]pyridin-2-yl]pyridin-2-yl}cyclopropanecarboxamide]: the half-maximal inhibitory concentration (IC50) stood at 28.1 nM.

As for `O=C1NCCc2[nH]c(-c3ccncc3OCC(F)F)c(Nc3cccc(F)c3)c21` [Example 41, 2-[3-(2,2-difluoroethoxy)pyridin-4-yl]-3-[(3-fluorophenyl)amino]-1,5,6,7-tetrahydro-4H-pyrrolo[3,2-c]pyridin-4-one], the IC50 came to 36.8 nM.

In the case of `O=C1NCCc2[nH]c(-c3ccncc3OCC(F)F)c(Nc3ccc(F)cc3)c21` [Example 42, 2-[3-(2,2-difluoroethoxy)pyridin-4-yl]-3-[(4-fluorophenyl)amino]-1,5,6,7-tetrahydro-4H-pyrrolo[3,2-c]pyridin-4-one], the half-inhibitory concentration (IC50) was 111 nM.

Take `O=C1NCCc2[nH]c(-c3ccncc3OCC(F)F)c(Nc3ccc(F)c(F)c3)c21` [Example 43, 2-[3-(2,2-difluoroethoxy)pyridin-4-yl]-3-[(3,4-difluorophenyl)amino]-1,5,6,7-tetrahydro-4H-pyrrolo[3,2-c]pyridin-4-one]: the 50% inhibitory concentration (IC50) was 136 nM.

Turning to `COCCOc1cnccc1-c1[nH]c2c(c1Nc1ccc(F)c(F)c1)C(=O)NCC2` [Example 45, 3-[(3,4-difluorophenyl)amino]-2-[3-(2-methoxyethoxy)pyridin-4-yl]-1,5,6,7-tetrahydro-4H-pyrrolo[3,2-c]pyridin-4-one], the half-inhibitory concentration (IC50) was 28 nM.

In the case of `COCCOc1cnccc1-c1[nH]c2c(c1Nc1ccc(F)cc1)C(=O)NCC2` [Example 46, 3-[(4-fluorophenyl)amino]-2-[3-(2-methoxyethoxy)pyridin-4-yl]-1,5,6,7-tetrahydro-4H-pyrrolo[3,2-c]pyridin-4-one], the half-inhibitory concentration (IC50) was 32.8 nM.

As to `COCCOc1cnccc1-c1[nH]c2c(c1Nc1cccc(F)c1)C(=O)NCC2` [Example 47, 3-[(3-fluorophenyl)amino]-2-[3-(2-methoxyethoxy)pyridin-4-yl]-1,5,6,7-tetrahydro-4H-pyrrolo[3,2-c]pyridin-4-one], the IC50 was found to be 19.4 nM.
